Test results reported in patent publication US20240327382A1 (ALMAC DISCOVERY LIMITED, priority 2021, published 2024).
pIC50: −log10 of the molar value.

Target: T1, Full-length USP19 (Homo sapiens, UniProt O94966)
T1 construct: Full-length USP19 was purchased from Boston Biochem (E-576); purchased Boston Biochem E-576
T1 sequence (O94966 1-1318): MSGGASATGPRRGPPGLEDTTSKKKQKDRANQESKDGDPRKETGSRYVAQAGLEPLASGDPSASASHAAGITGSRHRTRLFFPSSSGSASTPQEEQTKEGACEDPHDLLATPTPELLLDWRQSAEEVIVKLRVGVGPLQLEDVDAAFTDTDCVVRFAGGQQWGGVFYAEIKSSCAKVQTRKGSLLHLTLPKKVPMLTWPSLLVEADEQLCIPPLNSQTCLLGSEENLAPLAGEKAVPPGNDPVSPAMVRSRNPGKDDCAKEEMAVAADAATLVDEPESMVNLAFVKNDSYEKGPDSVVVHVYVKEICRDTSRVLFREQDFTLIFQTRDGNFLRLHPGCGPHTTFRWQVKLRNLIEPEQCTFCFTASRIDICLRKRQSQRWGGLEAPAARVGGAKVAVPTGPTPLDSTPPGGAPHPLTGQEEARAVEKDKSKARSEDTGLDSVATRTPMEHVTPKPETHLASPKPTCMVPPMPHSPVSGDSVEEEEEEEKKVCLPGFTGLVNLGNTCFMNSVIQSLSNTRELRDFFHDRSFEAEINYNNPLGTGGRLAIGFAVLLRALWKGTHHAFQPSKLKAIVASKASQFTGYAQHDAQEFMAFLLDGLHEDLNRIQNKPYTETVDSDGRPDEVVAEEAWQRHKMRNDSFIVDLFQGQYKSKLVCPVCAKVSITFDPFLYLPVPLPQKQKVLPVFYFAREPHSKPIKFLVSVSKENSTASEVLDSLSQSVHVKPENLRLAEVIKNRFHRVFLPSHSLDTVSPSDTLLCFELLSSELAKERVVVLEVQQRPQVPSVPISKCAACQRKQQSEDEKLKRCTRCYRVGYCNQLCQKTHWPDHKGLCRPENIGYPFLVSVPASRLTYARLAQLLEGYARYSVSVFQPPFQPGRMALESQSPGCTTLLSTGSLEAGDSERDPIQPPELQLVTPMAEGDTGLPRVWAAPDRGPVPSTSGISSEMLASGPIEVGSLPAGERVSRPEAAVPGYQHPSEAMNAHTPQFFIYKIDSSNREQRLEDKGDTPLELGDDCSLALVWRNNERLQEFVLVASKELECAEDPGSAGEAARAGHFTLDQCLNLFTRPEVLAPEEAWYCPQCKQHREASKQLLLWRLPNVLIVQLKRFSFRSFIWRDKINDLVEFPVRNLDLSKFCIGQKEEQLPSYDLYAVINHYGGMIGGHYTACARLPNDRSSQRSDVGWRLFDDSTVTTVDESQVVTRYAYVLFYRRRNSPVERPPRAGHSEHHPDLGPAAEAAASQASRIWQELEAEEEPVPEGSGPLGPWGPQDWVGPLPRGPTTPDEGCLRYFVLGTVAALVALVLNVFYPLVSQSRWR
Assay: USP19 fluorescence polarisation (FP) assay, Ubiquitin-Lys-TAMRA substrate
Format: biochemical
Details: average of at least two duplicate experiments
Summary of the method: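 Fluorescence polarisation (excitation 530 nm, parallel and perpendicular emission at 575 nm) was recorded every 15 min for 90 min after adding the ubiquitin-Lys-TAMRA isopeptide (500 nM as dispensed). Beforehand, the full-length enzyme (2.5 nM as dispensed) sat 30 min at RT with compound diluted from 200 μM to 2 μM in HEPES pH 7.4 buffer with 150 mM NaCl, 5 mM DTT, 0.05% BSA and 0.05% CHAPS. Values normalised to uninhibited wells gave IC50s by non-linear fitting, each the mean of two or more duplicate runs.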

| Compound | pIC50 |
| --- | --- |
| CC(C)N[C@@H]1CCN(C(=O)N2CC[C@@H](Cn3cnc(-c4ccccc4)cc3=O)C3(CCCC3)C2)[C@H](c2cc(F)ccc2F)C1 [Example 160, 3-(((R)-7-((2S,4R)-2-(2,5-Difluorophenyl)-4-(isopropylamino)piperidine-1-carbonyl)-7-azaspiro[4.5]decan-10-yl)methyl)-6-phenylpyrimidin-4(3H)-one] | > 8.00 |
| CN(C)C(=O)[C@@H]1CCN(C(=O)N2CC[C@@H](Cn3cnc(-c4ccccc4)cc3=O)C3(CCCC3)C2)[C@H](c2ccccc2)C1 [Example 177, (2S,4R)-N,N-Dimethyl-1-((R)-10-((6-oxo-4-phenylpyrimidin-1(6H)-yl)methyl)-7-azaspiro[4.5]decane-7-carbonyl)-2-phenylpiperidine-4-carboxamide] | 4.70 to 6.00 |
| O=C(N[C@@H]1CCN(C(=O)N2CC[C@@H](Cn3cnc(-c4ccccc4)cc3=O)C3(CCCC3)C2)[C@H](c2cc(F)ccc2F)C1)C1CC1 [Example 164, N-((2S,4R)-2-(2,5-Difluorophenyl)-1-((R)-10-((6-oxo-4-phenylpyrimidin-1(6H)-yl)methyl)-7-azaspiro[4.5]decane-7-carbonyl)piperidin-4-yl)cyclopropanecarbox-amide] | > 8.00 |
| CC1(N[C@@H]2CCN(C(=O)N3CC[C@@H](Cn4cnc(-c5ccccc5)cc4=O)C4(CCCC4)C3)[C@H](c3ccccc3)C2)CC1 [Example 151, 3-(((R)-7-((2S,4R)-4-((1-Methylcyclopropyl)amino)-2-phenylpiperidine-1-carbonyl)-7-azaspiro[4.5]decan-10-yl)methyl)-6-phenylpyrimidin-4(3H)-one] | > 8.00 |
| C[C@H](CC(F)(F)F)C(=O)N1CCC(Cn2ccc(-c3ccccc3)cc2=O)C2(CCCC2)C1 (stereo partly drawn) [Example 5, 4-Phenyl-1-((7-((R)-4,4,4-trifluoro-2-methylbutanoyl)-7-azaspiro[4.5]decan-10-yl)methyl)pyridin-2(1H)-one] | 4.70 to 6.00 |
| COC(=O)[C@@H]1CCN(C(=O)N2CC[C@@H](Cn3cnc(-c4ccccc4)cc3=O)C3(CCCC3)C2)[C@H](c2ccccc2)C1 [Example 76] | 4.70 to 6.00 |
| CN[C@@H]1CCN(C(=O)N2CC[C@@H](Cn3cnc(-c4ccccc4C)cc3=O)C3(CCCC3)C2)[C@H](c2cc(F)ccc2F)C1 [Example 114, 3-(((R)-7-((2S,4R)-2-(2,5-Difluorophenyl)-4-(methylamino)piperidine-1-carbonyl)-7-azaspiro[4.5]decan-10-yl)methyl)-6-(o-tolyl)pyrimidin-4(3H)-one] | > 8.00 |
| O=C(N1CC[C@@H](Cn2cnc(C3CC3)cc2=O)C2(CCCC2)C1)N1CC[C@@H](NCC(F)F)C[C@H]1c1cc(F)ccc1F [Example 182, 6-Cyclopropyl-3-(((R)-7-((2S,4R)-4-((2,2-difluoroethyl)amino)-2-(2,5-difluorophenyl)piperidine-1-carbonyl)-7-azaspiro[4.5]decan-10-yl)methyl)pyrimidin-4(3H)-one] | 7.00 to 8.00 |
| CN[C@@H]1CCN(C(=O)N2CC[C@@H](Cn3cnc(-c4ccccc4OC)cc3=O)C3(CCCC3)C2)[C@H](c2ccc(F)cc2)C1 [Example 104, 3-(((R)-7-((2S,4R)-2-(4-Fluorophenyl)-4-(methylamino)piperidine-1-carbonyl)-7-azaspiro[4.5]decan-10-yl)methyl)-6-(2-methoxyphenyl)pyrimidin-4(3H)-one] | > 8.00 |
| CN[C@@H]1CCN(C(=O)N2CC[C@@H](Cn3cnc4ccc(F)cc4c3=O)C3(CCCC3)C2)[C@H](c2ccccc2)C1 [Example 101, 6-Fluoro-3-(((R)-7-((2S,4R)-4-(methylamino)-2-phenylpiperidine-1-carbonyl)-7-azaspiro[4.5]decan-10-yl)methyl)quinazolin-4(3H)-one] | > 8.00 |
| CCN[C@@H]1CCN(C(=O)N2CC[C@@H](Cn3ccc(-c4ccccc4)cc3=O)C3(CCCC3)C2)[C@H](c2ccccc2)C1 [Example 45, 1-(((R)-7-((2S,4R)-4-(Ethylamino)-2-phenylpiperidine-1-carbonyl)-7-azaspiro[4.5]decan-10-yl)methyl)-4-phenylpyridin-2(1H)-one] | > 8.00 |
| CN[C@@H]1CCN(C(=O)N2CC[C@@H](Cn3ccc(-c4ccccc4)cc3=O)C3(CCCC3)C2)[C@H](c2ccccc2)C1 [Example 48, 1-(((R)-7-((2S,4R)-4-(Methylamino)-2-phenylpiperidine-1-carbonyl)-7-azaspiro[4.5]decan-10-yl)methyl)-4-phenylpyridin-2(1H)-one] | > 8.00 |
| CN[C@@H]1CCN(C(=O)N2CC[C@@H](Cn3cnc(-c4ccccc4C)cc3=O)C3(CCCC3)C2)[C@H](c2cc(F)cc(F)c2)C1 [Example 146, 3-(((R)-7-((2S,4R)-2-(3,5-Difluorophenyl)-4-(methylamino)piperidine-1-carbonyl)-7-azaspiro[4.5]decan-10-yl)methyl)-6-(o-tolyl)pyrimidin-4(3H)-one] | > 8.00 |
| COc1ccccc1-c1cc(=O)n(C[C@]2(OC)CCN(C(=O)N3CCNC[C@H]3c3cc(F)ccc3F)CC23CCCC3)cn1 [Example 187, 3-(((S)-7-((R)-2-(2,5-Difluorophenyl)piperazine-1-carbonyl)-10-methoxy-7-azaspiro[4.5]decan-10-yl)methyl)-6-(2-methoxyphenyl)pyrimidin-4(3H)-one] | > 8.00 |
| O=C(N1CC[C@@H](Cn2cnc(-c3ccccc3)cc2=O)C2(CCCC2)C1)N1CC[C@@H](NCc2ccncn2)C[C@H]1c1cc(F)ccc1F [Example 170, 3-(((R)-7-((2S,4R)-2-(2,5-Difluorophenyl)-4-((pyrimidin-4-ylmethyl)amino)piperidine-1-carbonyl)-7-azaspiro[4.5]decan-10-yl)methyl)-6-phenylpyrimidin-4(3H)-one] | > 8.00 |
| CN[C@@H]1CCN(C(=O)N2CC[C@@H](Cn3ncccc3=O)C3(CCCC3)C2)[C@H](c2ccc(F)cc2F)C1 [Example 129, 2-(((R)-7-((2S,4R)-2-(2,4-Difluorophenyl)-4-(methylamino)piperidine-1-carbonyl)-7-azaspiro[4.5]decan-10-yl)methyl)pyridazin-3(2H)-one] | 7.00 to 8.00 |
| CN[C@@H]1CCN(C(=O)N2CC[C@@H](Cn3cnc(-c4ccccc4)cc3=O)C3(CCCC3)C2)[C@H](c2ccc(F)c(F)c2)C1 [Example 133, 3-(((R)-7-((2S,4R)-2-(3,4-Difluorophenyl)-4-(methylamino)piperidine-1-carbonyl)-7-azaspiro[4.5]decan-10-yl)methyl)-6-phenylpyrimidin-4(3H)-one] | > 8.00 |
| N[C@@H]1CCN(C(=O)N2CC[C@@H](Cn3ccc(-c4ccccc4)cc3=O)C3(CCCC3)C2)[C@H](c2cc(F)ccc2F)C1 [Example 87, 1-(((R)-7-((2S,4R)-4-Amino-2-(2,5-difluorophenyl)piperidine-1-carbonyl)-7-azaspiro[4.5]decan-10-yl)methyl)-4-phenylpyridin-2(1H)-one] | > 8.00 |
| N[C@@H]1CCN(C(=O)N2CC[C@@H](Cn3ccc(-c4ccccc4)cc3=O)C3(CCCC3)C2)[C@H](c2ccccc2)C1 [Example 23, 1-(((R)-7-((2S,4R)-4-Amino-2-phenylpiperidine-1-carbonyl)-7-azaspiro[4.5]decan-10-yl)methyl)-4-phenylpyridin-2(1H)-one] | > 8.00 |
| CN[C@@H]1CCN(C(=O)N2CC[C@@H](Cn3cnc(-c4ccccc4)cc3=O)C3(CCCC3)C2)[C@H](c2cccc(F)c2F)C1 [Example 132, 3-(((R)-7-((2S,4R)-2-(2,3-Difluorophenyl)-4-(methylamino)piperidine-1-carbonyl)-7-azaspiro[4.5]decan-10-yl)methyl)-6-phenylpyrimidin-4(3H)-one] | > 8.00 |
